From patent US12187758B2 (ROME Therapeutics, Inc., priority 2022, dated 2025) come the findings set out here.

Where only a bound is given, the exact number is not on record here.

By IC50 is commonly meant the midpoint of a concentration-inhibition curve.

Holding throughout (format): cell-based
One test concerns THP1-Dual KO-TREX1 cells. Nature of the test: THP1 TREX1 KO inhibition assay (type 1 interferon response). The conditions noted are these: Homo sapiens, 144 h, type 1 interferon (QUANTI-LUC), 1 μM 5-aza-2′-deoxycytidine, six days. As to the method:
Exemplary compounds were tested for their ability to alter the type 1 interferon response in THP1 Dual TREX1 KG cells treated with 5-aza-2′-deoxycytidine. Assay procedures and results are described below.
THP1 Dual TREX1 KG cells were purchased from Invivogen. The THP1-Dual™ KO-TREX1 cells were cultured in RPMI 1640, 10% heat-inactivated fetal bovine serum, 25 mM HEPES, 10 μg/mL blasticidin, and 100 μg/mL zeocin. THP1-Dual™ KO-TREX1 cells were treated with a dose titration of a test compound alone or in the presence of 1 μM 5-aza-2′-deoxycytidine (Sigma-Aldrich, cat #189825). Type 1 Interferon and cell viability were assessed after six days of treatment.
Stock solution of the test compound was prepared in DMSO followed by a three-fold dilution in DMSO. Additional 50× dilution was prepared in cell culture media for each dilution. 10 μL of diluted test compound was then added to a 96-well plate.
THP1-Dual™ KO-TREX1 cells were treated with either 1×PBS or 1 μM 5-aza-2′-deoxycytidine. […] of the THP1-Dual™ KO-TREX1 cells from either treatment were added to each well of the 96-well plate containing the test compound titration at 50,000 cells/well. Cells were incubated at 37° C., 5% CO2 in a humidified incubator for six days. Cells treated with 1 μM 5-aza-2′-deoxycytidine were added at the same density as above and incubated at 37° C., 5% CO2 in a humidified incubator for six days. On day six, 25 μL of cell supernatant was transferred to a 96-well white-walled plate, followed by addition to each well of 50 μL of QUANTI-LUC solution containing stabilizer. Luminescence was detected on a plate reader according to the manufacturer's instructions.
The remaining cells were assessed for cell viability by adding 25 μL of CellTiter-Glo (Promega, G9683) solution to each well, and being placed on a shaker for 10 minutes at room temperature. Luminescence was detected on a plate reader, according to the manufacturer's instructions.
In the tables “A” represents values≤0.050 μM; “B” represents values from >0.050 μM to ≤0.100 μM; “C” represents values from >0.100 μM to ≤0.250 μM; “D” represents values from >0.250 μM to ≤1 μM; “E” represents values>1 μM; and “NT”=not tested: […]

Test [1] is described as follows: Mitochondria toxicity assay with PC3 cells, in-cell ELISA COX-1. Conditions: 5 days treatment. On the procedure:
(§1) Exemplary compounds were tested for inhibition of expression of mitochondria DNA encoded proteins COX-1 […]. SDH-A (succinate dehydrogenase-A) is a control mitochondria protein encoded by nuclear DNA. Reduction in COX-1 expression indicates off target inhibition of mitochondria DNA synthesis which leads to mitochondrial toxicity. Assay procedures and results are described below.
(§2) PC3 cells were purchased from ATCC and cultured in F-12 Kaighn's modified medium (Hyclone), 10% heat-inactivated fetal bovine serum (Invitrogen), 1% Penicillin-Streptomycin (Invitrogen). PC3 cells were treated with a dose titration of a test compound on 96 well plates for 5 days at 37° C., 5% CO2 in a humidified incubator. The treatment plates are duplicated, one for in-cell ELISA for mitochondria proteins and one for cytotoxicity.
(§3) In-cell ELISA was performed to measure mitochondrial proteins using MitoBiogenesis In-Cell ELISA kit (Abcam) per manufacturer's instruction. The medium was aspirated from the compound treated cells, 100 μl per well of 4% paraformaldehyde (Solarbio) was added and cells were incubated at room temperature for 20 minutes. The cells were washed three times with PBS. 100 μl of 0.5% acetic acid was added per cell, and the cells were incubate at room temperature for 5 minutes. Cells were washed once with PBS. 100 μl per well of Permeabilization Buffer was added, and the cells incubate at room temperature for 30 minutes. The permeabilization buffer was removed and 200 μl per well 2× Blocking Buffer was added and the cells were incubated at room temperature for 2 hours. After removing the Blocking Buffer 100 μl per well of primary antibody to SDH-A or COX-1 was added, and the cells were incubated at 4° C. overnight. The primary antibody solution was removed and cells were washed 3 times with the Wash Buffer. 100 μl per well of AP- and HRP-labelled secondary antibodies was added, and the cells were incubated at room temperature for 1 hour. The cells were then washed 4 times with the Wash Buffer. For SDH-A detection, 100 μl per well AP Development Solution was added, and the cells were incubated at room temperature for 10 minutes. Cells were then read on CLARTO star^plus microplate reader (BMG Labtech) for kinetic readings at 405 nm for 5 minutes. […] The cells were then read on CLARTO star^plus microplate reader (BMG Labtech) for kinetic readings at 600 nm for 15 minutes.
(§4) In the table “A” represents values<1.0 μM; “B” represents values from >1.0 μM to ≤10.0 μM; “C” represents values from >10.0 μM to ≤50.0 μM; “D” represents values from >50.0 μM to ≤100.0 μM; and “E” represents values>100.0 μM.

Test [2] has as its system SDH-A (succinate dehydrogenase-A). Nature of the test: Mitochondria toxicity assay with PC3 cells, in-cell ELISA SDH-A. The conditions noted are these: 5 days treatment. On the procedure:
as §1, §2, §3, §4
On the technique in general: ELISA stands for enzyme-linked immunosorbent assay.

Another test concerns PC3 cells. Put plainly: Mitochondria toxicity assay with PC3 cells, cytotoxicity (Cell Titer Glo). The conditions noted are these: Homo sapiens, PC-3, 120 h, 5 days treatment. On the procedure: as §2
For the cytotoxicity assay, the medium from the cell viability plate was removed, 50 μL per well of Cell Titer Glo (Promega, G9683) was added. Then the cells incubated for 30 minutes at room temperature. Luminescence was read by Envision (PerkinElmer 2105).
as §4

As for `Cc1cn([C@H]2C[C@H](O)[C@](CO)(CCl)O2)c(=O)[nH]c1=O` [Compound 4, 1-((2R,4S,5R)-5-(chloromethyl)-4-hydroxy-5-(hydroxymethyl)tetrahydrofuran-2-yl)-5-methylpyrimidine-2,4(1H,3H)-dione], the IC50 was above 1 µM with THP1-Dual KO-TREX1 cells, above 100 µM in test [1], above 100 µM in test [2] and above 100 µM in the test with PC3 cells.
As to `Cc1cn([C@H]2C[C@H](F)[C@@](C)(CO)O2)c(=O)[nH]c1=O` [Compound 180, 1-((2R,4S,5R)-4-fluoro-5-(hydroxymethyl)-5-methyltetrahydrofuran-2-yl)-5-methylpyrimidine-2,4(1H,3H)-dione], the IC50 with THP1-Dual KO-TREX1 cells was above 1 µM; in test [1], above 100 µM; in test [2], above 100 µM; with PC3 cells it was above 100 µM.
For `CC[C@]1(CO)O[C@@H](n2cnc3c(=O)[nH]c(N)nc32)[C@@H](F)[C@@H]1O` [Compound 68, 2-amino-9-((2R,3S,4R,5R)-5-ethyl-3-fluoro-4-hydroxy-5-(hydroxymethyl)tetrahydrofuran-2-yl)-1,9-dihydro-6H-purin-6-one], the IC50 with THP1-Dual KO-TREX1 cells was above 1 µM; in test [1], 10 to 50 µM; in test [2], 10 to 50 µM; in the test with PC3 cells it was 10 to 50 µM.
As to `Nc1nc(F)nc2c1ncn2[C@H]1C[C@H](O)[C@](CO)(CCl)O1` [Compound 8, (2R,3S,5R)-5-(6-amino-2-fluoro-9H-purin-9-yl)-2-(chloromethyl)-2-(hydroxymethyl)tetrahydrofuran-3-ol], the half-maximal inhibitory concentration (IC50) in the test with THP1-Dual KO-TREX1 cells is above 1 µM; in test [1] it was 1 to 10 µM; in test [2], 1 to 10 µM; with PC3 cells it was 1 to 10 µM.
`Nc1nc(=O)n([C@@H]2OC(CO)(CO)[C@@H](O)[C@@H]2F)cc1F` [Compound 177, 4-amino-5-fluoro-1-((2R,3S,4R)-3-fluoro-4-hydroxy-5,5-bis(hydroxymethyl)tetrahydrofuran-2-yl) pyrimidin-2(1H)-one]: the IC50 is above 1 µM in the test with THP1-Dual KO-TREX1 cells, above 100 µM in test [1], above 100 µM in test [2] and above 100 µM in the test with PC3 cells.
As for `C=C[C@]1(CO)O[C@@H](n2cc(F)c(N)nc2=O)C[C@@H]1O` [Compound 74, 4-amino-5-fluoro-1-((2R,4S,5R)-4-hydroxy-5-(hydroxymethyl)-5-vinyltetrahydrofuran-2-yl)pyrimidin-2(1H)-one], the IC50 with THP1-Dual KO-TREX1 cells is above 1 µM; in test [1], above 100 µM; in test [2], above 100 µM; in the test on PC3 cells, above 100 µM.
Turning to `Nc1ccn([C@H]2C[C@H](O)[C@](CO)(C(F)F)O2)c(=O)n1` [Compound 110, 4-amino-1-((2R,4S,5R)-5-(difluoromethyl)-4-hydroxy-5-(hydroxymethyl)-tetrahydrofuran-2-yl)pyrimidin-2(1H)-one], the IC50 is above 1 µM in the test with THP1-Dual KO-TREX1 cells, above 100 µM in test [1], above 100 µM in test [2] and above 100 µM in the test on PC3 cells.
In the case of `Nc1nc2c(ncn2[C@H]2C[C@H](O)[C@](CO)(CF)O2)c(=O)[nH]1` [Compound 46, 2-amino-9-((2R,4S,5R)-5-(fluoromethyl)-4-hydroxy-5-(hydroxymethyl)tetrahydro-furan-2-yl)-1,9-dihydro-6H-purin-6-one], the IC50 in the test on THP1-Dual KO-TREX1 cells was above 1 µM; in test [1], 1 to 10 µM; in test [2] it was 1 to 10 µM; in the test with PC3 cells it was 1 to 10 µM.
Regarding `C=C[C@]1(CO)O[C@@H](n2ccc(N)nc2=O)C[C@@H]1O` [Compound 43, 4-amino-1-((2R,4S,5R)-4-hydroxy-5-(hydroxymethyl)-5-vinyltetrahydrofuran-2-yl)pyrimidin-2(1H)-one], the IC50 with THP1-Dual KO-TREX1 cells was above 1 µM; in test [1], 1 to 10 µM; in test [2] it was 1 to 10 µM; in the test on PC3 cells it was above 100 µM.
As for `C=C[C@]1(CO)O[C@@H](n2cc(F)c(N)nc2=O)[C@@H](F)[C@@H]1O` [Compound 76, 4-amino-1-[(2R,3S,4R,5R)-5-ethenyl-3-fluoro-4-hydroxy-5-(hydroxymethyl)oxolan-2-yl]-5-fluoropyrimidin-2-one], the IC50 in the test with THP1-Dual KO-TREX1 cells was above 1 µM; in test [1], 1 to 10 µM; in test [2], 1 to 10 µM; with PC3 cells it was above 100 µM.
In the case of `C#C[C@]1(CO)O[C@@H](n2cc(F)c(N)nc2=O)C[C@@H]1O` [Compound 107, 4-amino-1-((2R,4S,5R)-5-ethynyl-4-hydroxy-5-(hydroxymethyl)tetrahydro-furan-2-yl)-5-fluoropyrimidin-2(1H)-one], the IC50 is above 1 µM in the test on THP1-Dual KO-TREX1 cells, above 100 µM in test [1], above 100 µM in test [2] and above 100 µM in the test with PC3 cells.
On to `[N-]=[N+]=N[C@]1(CO)O[C@@H](n2cc(F)c(N)nc2=O)[C@@H](F)[C@@H]1O` [Compound 165], for which the IC50 in the test on THP1-Dual KO-TREX1 cells was 0.25 to 1 µM; in test [1], below 1 µM; in test [2], below 1 µM; in the test with PC3 cells it was above 100 µM.
With `Nc1nc(=O)n([C@@H]2O[C@@](CO)(CCl)[C@@H](O)[C@@H]2Cl)cc1F` [Compound 137, 4-amino-1-[(2R,3S,4R,5R)-3-chloro-5-(chloromethyl)-4-hydroxy-5-(hydroxymethyl)oxolan-2-yl]-5-fluoropyrimidin-2-one], the 50% inhibitory concentration (IC50) is above 1 µM with THP1-Dual KO-TREX1 cells, above 100 µM in test [1], above 100 µM in test [2] and above 100 µM in the test with PC3 cells.
In the case of `Nc1ccn([C@@H]2O[C@@](CO)(CBr)[C@@H](O)[C@@H]2F)c(=O)n1` [Compound 172], the IC50 in the test on THP1-Dual KO-TREX1 cells was above 1 µM; in test [1], above 100 µM; in test [2], above 100 µM; in the test on PC3 cells it was above 100 µM.
Regarding `CC(C)C(=O)OC[C@@]1(CCl)O[C@@H](n2cc(F)c(N)nc2=O)C[C@@H]1OC(=O)C(C)C` [Compound 58], the concentration for half-maximal inhibition (IC50) in the test with THP1-Dual KO-TREX1 cells is above 1 µM; in test [1] it was 10 to 50 µM; in test [2], above 100 µM; with PC3 cells, above 100 µM.
In the case of `Nc1ccn([C@@H]2O[C@H](CO)[C@@H](O)C2(F)F)c(=O)n1` [Compound 111, 4-amino-1-((2R,4R,5R)-3,3-difluoro-4-hydroxy-5-(hydroxymethyl)tetrahydro-furan-2-yl)pyrimidin-2(1H)-one], the IC50 in the test on THP1-Dual KO-TREX1 cells is 0.05 to 0.1 µM; in test [1], below 1 µM; in test [2], below 1 µM; with PC3 cells, below 1 µM.
With `CC[C@]1(CO)O[C@@H](n2cnc3c(=O)[nH]c(N)nc32)C[C@@H]1O` [Compound 115, 2-amino-9-((2R,4S,5R)-5-ethyl-4-hydroxy-5-(hydroxymethyl)tetrahydro-furan-2-yl)-1,9-dihydro-6H-purin-6-one], the IC50 was above 1 µM with THP1-Dual KO-TREX1 cells, 1 to 10 µM in test [1], 1 to 10 µM in test [2] and 1 to 10 µM in the test on PC3 cells.
